According to article PMC3972818 (Nature medicine, 2014):

Experiments:
[1] = in vitro; assay type: in vitro ADME; settings: rat, microsomes
[2] = system: COX1 synthesis in mitochondria isolated from HEK293 cells; assay: Mitochondrial in organello translation; assay type: biochemical, human; settings: even up to 1 mM
[3] = mean (% CV); cited from earlier work
[4] = rat IV; mean (% CV); cited from earlier work

SMILES: CN[C@@H]1[C@H](O)[C@H](NC)[C@H]2O[C@@]3(O)C(=O)C[C@@H](C)O[C@H]3O[C@@H]2[C@H]1O [Spectinomycin, spectinomycin]
- remaining at 1.5 h [1]: 80.4%
- Inhibition of in organello mitochondrial translation [2]: did not inhibit
- Protein serum binding (Rat) % bound [3]: 12.7 (7.5)^2%
- % excreted unchanged in urine [4]: 55.3 (27.0)^2%
- CL [4]: 0.60 (11.5)^2 L/h/kg
- Vd [4]: 0.76 (45.2)^2 L/kg
- t½ [4]: 0.75 (49.3)^2 h
